Data from ChEMBL document CHEMBL1773036, “Scalarane sesterterpenes from the sponge Hyatella sp” (J Nat Prod, 2011).
Values after ≈ are worked out from the molar mass of the structure shown.

How the values were obtained:
K562 = test: Cytotoxicity against human K562 cells by MTT assay; assay type: functional; settings: read-out: LC50 (the source's name)
Micrococcus luteus = test: Antibacterial activity against Micrococcus luteus IFO 12708 after 24 hrs by twofold serial dilution method; assay type: functional; settings: IFO 12708, 24 h
Escherichia coli = test: Antibacterial activity against Escherichia coli ATCC 25922 after 24 hrs by twofold serial dilution method; assay type: functional; settings: ATCC 25922, 24 h
Salmonella typhimurium = test: Antibacterial activity against Salmonella typhimurium ATCC 14028 after 24 hrs by twofold serial dilution method; assay type: functional, Salmonella enterica subsp. enterica serovar Typhimurium; settings: Salmonella enterica, ATCC 14028, 24 h
Bacillus subtilis = test: Antibacterial activity against Bacillus subtilis ATCC 6633 after 24 hrs by twofold serial dilution method; assay type: functional; settings: ATCC 6633, 24 h
Proteus vulgaris = test: Antibacterial activity against Proteus vulgaris ATCC 3851 after 24 hrs by twofold serial dilution method; assay type: functional; settings: ATCC 3851, 24 h
Staphylococcus aureus = test: Antibacterial activity against Staphylococcus aureus ATCC 6538p after 24 hrs by twofold serial dilution method; assay type: functional
[1] = Inhibition of Magnaporthe grisea Guy 11 isocitrate lyase; design: species or system Pyricularia oryzae

SMILES | CC50 (K562) | MIC (Micrococcus luteus) | MIC (Escherichia coli) | MIC (Salmonella typhimurium) | MIC (Bacillus subtilis) | MIC (Proteus vulgaris) | MIC (Staphylococcus aureus) | IC50 [1]
COc1cccc2c1C(=O)c1c(O)c3c(c(O)c1C2=O)C[C@@](O)(C(=O)CO)C[C@@H]3O[C@H]1C[C@H](N)[C@H](O)[C@H](C)O1 [DOXORUBICIN] | 9.7 µM |  |  |  |  |  |  | 
CC(=O)OC[C@]12CCCC(C)(C)[C@@H]1CC[C@]1(C)[C@@H]2C[C@@H](OC(C)=O)[C@]2(C)[C@@H]3C(=CC[C@@H]12)CO[C@H]3O | 39.5 µM | > 100 µg/mL | > 100 µg/mL | > 100 µg/mL | 0.78 µg/mL (≈ 1.6 µM) | 3.12 µg/mL (≈ 6.39 µM) | > 100 µg/mL | 
CC(=O)O[C@@H]1C[C@@H]2[C@@]3(C)CCCC(C)(C)[C@@H]3CC[C@@]2(C)[C@@H]2CC=C3CO[C@@H](O)[C@@H]3[C@@]12C | 31.3 µM | > 100 µg/mL | > 100 µg/mL | > 100 µg/mL | > 100 µg/mL | > 100 µg/mL | > 100 µg/mL | 55.3 µM
C[C@@]1(CO)CCC[C@]2(C)[C@H]3C[C@@H](O)[C@]4(C)[C@H]5COC(=O)C5=CC[C@H]4[C@]3(C)CC[C@@H]12 | 31.1 µM | > 100 µg/mL | > 100 µg/mL | > 100 µg/mL | > 100 µg/mL | > 100 µg/mL | > 100 µg/mL | 133 µM
CO[C@@H]1OC(=O)C2=CC[C@H]3[C@]4(C)CC[C@H]5C(C)(C)CCC[C@]5(C)[C@H]4C[C@@H](OC(C)=O)[C@]3(C)[C@H]21 | 38.4 µM | > 100 µg/mL | > 100 µg/mL | > 100 µg/mL | > 100 µg/mL | > 100 µg/mL | > 100 µg/mL | 40.8 µM
CC(=O)OC[C@]12CCCC(C)(C)[C@@H]1CC[C@]1(C)[C@@H]2C[C@@H](O)[C@]2(C)[C@@H]3C(=CC[C@@H]12)CO[C@H]3O | 19.5 µM | 12.5 µg/mL (≈ 28 µM) | > 100 µg/mL | 12.5 µg/mL (≈ 28 µM) | 6.25 µg/mL (≈ 14 µM) | 12.6 µg/mL (≈ 28.2 µM) | 25 µg/mL (≈ 56 µM) | 107 µM
CO[C@@H]1OCC2=CC[C@H]3[C@]4(C)CC[C@H]5C(C)(C)CCC[C@]5(C)[C@H]4C[C@@H](OC(C)=O)[C@]3(C)[C@H]21 | > 100 µM | > 100 µg/mL | > 100 µg/mL | > 100 µg/mL | > 100 µg/mL | > 100 µg/mL | > 100 µg/mL | 
CO[C@@H]1C[C@H]2[C@]3(C)CC[C@H]4C(C)(C)CCC[C@]4(C)[C@H]3C[C@@H](OC(C)=O)[C@]2(C)C2=C1C(=O)N(CC(=O)[O-])[C@H]2OC.[Na+] | 27 µM | 25 µg/mL | 100 µg/mL | 50 µg/mL | 6.25 µg/mL | 25 µg/mL | 50 µg/mL | 176 µM
CC(=O)O[C@@H]1C[C@@H]2[C@@]3(C)CCCC(C)(C)[C@@H]3CC[C@@]2(C)[C@@H]2CC=C3C(=O)O[C@@H](O)[C@@H]3[C@@]12C | 28.3 µM | > 100 µg/mL | > 100 µg/mL | > 100 µg/mL | 6.25 µg/mL (≈ 14.1 µM) | 6.25 µg/mL (≈ 14.1 µM) | > 100 µg/mL | 112 µM
O=C(O)CC[N+](=O)[O-] |  |  |  |  |  |  |  | 27.9 µM
CO[C@@H]1C[C@H]2[C@]3(C)CC[C@H]4C(C)(C)CCC[C@]4(C)[C@H]3C[C@@H](OC(C)=O)[C@]2(C)C2=C1[C@H](O)OC2=O (mixture of isomers) | 14.8 µM | 25 µg/mL | > 100 µg/mL | 12.5 µg/mL | < 0.39 µg/mL | 1.56 µg/mL | 25 µg/mL | 
CO[C@@H]1OCC2=CC[C@H]3[C@]4(C)CC[C@H]5C(C)(C)CCC[C@]5(C)[C@H]4C[C@@H](O)[C@]3(C)[C@H]21 | 24.6 µM | > 100 µg/mL | > 100 µg/mL | > 100 µg/mL | > 100 µg/mL | > 100 µg/mL | > 100 µg/mL | 
CC1(C)S[C@@H]2[C@H](NC(=O)[C@H](N)c3ccccc3)C(=O)N2[C@H]1C(=O)O [AMPICILLIN] |  | 0.39 µg/mL (≈ 1.12 µM) | 6.25 µg/mL (≈ 17.9 µM) | 1.56 µg/mL (≈ 4.46 µM) | 0.78 µg/mL (≈ 2.23 µM) | 1.56 µg/mL (≈ 4.46 µM) | 1.56 µg/mL (≈ 4.46 µM) | 
CO[C@@H]1C[C@H]2[C@]3(C)CC[C@H]4C(C)(C)CCC[C@]4(C)[C@H]3C[C@@H](OC(C)=O)[C@]2(C)C2=C1C(=O)O[C@H]2O | 36.7 µM | 25 µg/mL (≈ 52.7 µM) | 50 µg/mL (≈ 105 µM) | 12.5 µg/mL (≈ 26.3 µM) | 0.78 µg/mL (≈ 1.64 µM) | 3.12 µg/mL (≈ 6.58 µM) | 25 µg/mL (≈ 52.7 µM) | 
